From patent US20240285630A1, “Methods and compositions for improving exercise performance” (MEZZION PHARMA CO., LTD., priority 2021, published 2024)
Values joined by “and” are separate entries in the source; they are usually repeats but may differ in a detail not shown here. Identical values can stand only once.

Experiments:
[1] = system: adolescents with Fontan physiology; assay: FUEL Trial cardiopulmonary exercise test (CPET), cycle ergometer ramp protocol; type: in vivo, human; conditions: for Change in VE/VCO2 at VAT: 26 week - baseline; for Peak VO2 (% change), difference in change (treatment - placebo): natural log transformed data
Source text: The primary outcome was the change in oxygen consumption at peak exercise (max or peak VO2) from baseline to the 26-week visit. Secondary exercise outcomes included change in additional measures at maximal exertion, as well as change in measures of submaximal exercise at the ventilatory anaerobic threshold (VAT). The primary outcome for clinical secondary aims included change in myocardial performance index (MPI), an echocardiographically-derived measure of systolic and diastolic ventricular function, change in log-transformed reactive hyperemia index (InRHI), a PAT-derived measure of peripheral vascular function, and change in log-transformed serum BNP level. Safety was monitored through adverse event reports, which were collected according to a pre-specified protocol of study coordinator outreach, and through ad hoc patient and family communication with members of the study team at each site.
(§1) Baseline clinical testing completed before drug initiation included a blood draw to measure brain-type natriuretic peptide (BNP) level, a cardiopulmonary exercise test (CPET) using a standardized cycle ergometer ramp protocol, a standardized echocardiogram, and an assessment of peripheral vascular function using peripheral arterial tonometry (PAT) measured by finger cuff (EndoPAT; Itamar Medical, Israel). Participants who achieved maximal effort, defined as respiratory exchange ratio (RER)≥1.10 at peak exercise during CPET, were eligible for randomization and study drug initiation. […] End-of-study clinical testing included repeat measurement of serum BNP, CPET, echocardiogram, and PAT.
The primary analysis used the intention-to-treat population to evaluate the difference in the change in the primary outcome between treatment arms. This difference was assessed with an analysis of covariance (ANCOVA) with fixed factors for ventricular morphology (single left versus single right or mixed) and treatment group, with a continuous covariate of baseline max VO2. […] Secondary analyses included participants who successfully completed the protocol with measurable values at each of the secondary endpoints. Secondary outcomes of continuous data points were analyzed in the manner described for the primary outcome. In order to assess the generalizability of findings at the ventilatory anaerobic threshold, demographic and clinical characteristics were compared between participants without paired VO2 at VAT data and those comprising the remainder of the cohort.
The FUEL Trial was a Phase III clinical trial conducted at 30 centers. […] The primary outcome was the between group difference in change in oxygen consumption at peak exercise. Secondary outcomes included between group differences in changes in sub-maximal exercise at the ventilatory anaerobic threshold (VAT), the myocardial performance index (MPI), the natural log of the reactive hyperemia index (InRHI), and serum brain-type natriuretic peptide (BNP).
Baseline clinical testing completed before drug initiation included a blood draw to measure brain-type natriuretic peptide (BNP) level, a cardiopulmonary exercise test (CPET) using a standardized cycle ergometer ramp protocol (previously described in children and adolescents with Fontan physiology, Sleeper L A, Anderson P, Hsu D T, Mahony L, McCrindle B W, Roth S J, Saul J P, Williams R V, Geva T, Colan S D, Clark B J and Pediatric Heart Network I. Design of a large cross-sectional study to facilitate future clinical trials in children with the Fontan palliation. Am Heart J. 152(3):427-433 (September 2006), a standardized echocardiogram, and an assessment of peripheral vascular function using peripheral arterial tonometry (PAT) measured by finger cuff (EndoPAT; Itamar Medical, Israel). Participants who achieved maximal effort, defined as respiratory exchange ratio (RER)>1.10 at peak exercise during CPET, were eligible for randomization and study drug initiation. […]

[2] = system: adolescents with Fontan physiology; conditions: cited from earlier work
[3] = system: adolescents with Fontan physiology; assay: FUEL Trial resting data (heart rate, blood pressure, oxygen saturation); type: in vivo, human; conditions: baseline to 26-week
Source text: as §1
The primary analysis used the intention-to-treat population to evaluate the difference in the change in the primary outcome between treatment arms. This difference was assessed with an analysis of covariance (ANCOVA) with fixed factors for ventricular morphology (single left versus single right or mixed) and treatment group, with a continuous covariate of baseline max VO2. For those without data at the 26-week visit, this value was imputed as equal to the baseline value (no change). […] Secondary outcomes of continuous data points were analyzed in the manner described for the primary outcome. […]

[4] = baseline peak VO2 <80% predicted, N=251
[5] = baseline peak VO2 <80% predicted, N=301
[6] = baseline peak VO2 ≥80% predicted, N=66
[7] = excluding those with baseline peak VO2 ≥80% predicted, n=122
[8] = excluding those with baseline peak VO2 ≥80% predicted, n=150
[9] = post-hoc subgroup excluding baseline peak VO2 ≥80% of predicted
[10] = subgroup with baseline peak VO2 ≥80% of predicted, each treatment group

CCCOc1ccc(S(=O)(=O)NCCC2CCCN2C)cc1-c1nc2c(CCC)nn(C)c2c(=O)[nH]1 (stereo not drawn) [Udenafil, udenafil]
Increase in peak VO2 (VO2 max), percent ([1]; 87.5 mg twice daily, baseline to 26-week, ITT): 2.8% | Increase in peak VO2 (VO2 max), unindexed ([1]; 87.5 mg twice daily, baseline to 26-week, ITT n=200, p=0.071 vs placebo): 44 mL/min and 44 ± 245 mL/min | Anaerobic threshold oxygen consumption indexed to weight, 26-week ([1]; 26-week value, mean ± SD, n=185): 18.20 ± 4.51 (185) mL/kg/min | Peak exercise oxygen consumption indexed to weight, 26-week ([1]; 26-week value, mean ± SD, n=200): 27.61 ± 6.87 (200) mL/kg/min | Number needed to treat (NNT) for an increase in peak VO2 ([1]; ITT analysis): 10 | Patients with an increase in peak VO2, number ([1]; ITT analysis without imputation of missing data): 86 | Patients with an increase in peak VO2, percent ([1]; ITT analysis without imputation of missing data, p=0.075 vs placebo): 46% | Peak VO2 indexed to weight, change 26 week - baseline ([1]; all participants (ITT) n=200, p=0.092 vs placebo): −0.23 ± 4.06 (200) mL/kg/min and −0.23 mL/kg/min | VO2 at VAT indexed to weight, change 26 week - baseline ([1]; all participants n=170, p=0.012 vs placebo): −0.07 ± 3.0 (170) mL/kg/min and −0.07 mL/kg/min | % Predicted Peak VO2, 26 week - baseline ([1]; all participants n=189): −0.90 | Peak VO2 (% change, ml/kg/min), 26 week - baseline ([1]; all participants n=200): −1.0% | Change in VE/VCO2 at VAT ([1]; all participants): −0.76 | Change in VE/VCO2 at VAT ([1]; all participants, listed as udenafil): −0.8 | Change in work rate at VAT ([1]; all participants, baseline to 26-week): 3.46 Watts | Work at VAT, difference in change (treatment - placebo) ([1]; baseline peak VO2 <80% predicted, N=243): 3.54 watts | VE/VCO2 at VAT, difference in change (treatment - placebo) [1, 4]: −0.66 | VO2 at VAT, difference in change (treatment - placebo) [1, 4]: 0.77 mL/min/kg | Peak VO2, difference in change (treatment group - placebo group) [1, 5]: 1.12 mL/min/kg | Peak VO2 (% change), difference in change (treatment - placebo) [1, 5]: 5.0% | Peak VO2, difference in change (treatment group - placebo group) ([1]; baseline peak VO2 ≥80% predicted (Super Fontan), N=77): -0.89 mL/min/kg | Peak VO2, difference in change (treatment group - placebo group) ([1]; baseline peak VO2 ≥80% predicted (Super Fontan), N=77, listed as udenafil): no significant udenafil treatment effect | VE/VCO2 at VAT, difference in change (treatment - placebo) [1, 6]: −1.18 | VO2 at VAT, difference in change (treatment - placebo) [1, 6]: 0.38 mL/min/kg | Work at VAT, difference in change (treatment - placebo) [1, 6]: 3.15 watts | Peak VO2 (% change), difference in change (treatment - placebo) ([1]; baseline peak VO2 ≥80% predicted, N=77): −2.39% | Decrease in VE/VCO2 at VAT, percent ([1]; baseline to 26-week): 2.1% | Improvement in work rate at VAT, percent ([1]; baseline to 26-week): 5.5% and 5.2% | Decrease in VE/VCO2 at VAT (improved ventilatory efficiency) ([1]; baseline to 26-week, given as size of decrease): 0.8 | Peak exercise heart rate, change ([1]; baseline to 26-week, mean ± SD): −1.4 ± 11 bpm | Peak exercise minute ventilation, change ([1]; baseline to 26-week, mean ± SD): 1.2 ± 14 L/min | Peak exercise oxygen saturation, change ([1]; baseline to 26-week, mean ± SD): 0.4 ± 3.4% | Peak exercise respiratory rate, change ([1]; baseline to 26-week, mean ± SD): −1.1 ± 10 breaths/min | Peak exercise minute ventilation, change ([1]; baseline to 26-week, mean ± SD, listed as udenafil): no difference in the change in minute ventilation between groups | Work at VAT, 26 week - baseline ([1]; excluding those with baseline peak VO2 ≥80% predicted, n=119): 3.80 watts | VE/VCO2 at VAT, 26 week - baseline [1, 7]: −0.61 | VO2 at VAT, 26 week - baseline [1, 7]: 0.11 mL/min/kg | % Predicted Peak VO2, 26 week - baseline [1, 8]: 0.43 | Peak VO2 (% change, ml/kg/min), 26 week - baseline [1, 8]: 0.4% | Peak VO2, 26 week - baseline [1, 8]: 0.23 mL/min/kg | Number needed to treat (NNT) for an increase in peak VO2 [1, 9]: 8.2 | Patients with an increase in peak VO2, number [1, 9]: 75 | Patients with an increase in peak VO2, percent ([1]; post-hoc subgroup excluding baseline peak VO2 ≥80% of predicted, p=0.037 vs placebo): 50% | Patients with negative change in peak VO2, percent [1, 10]: 71 to 72% | Patients with positive change in peak VO2, percent [1, 10]: 28 to 29% | Average serum concentration ([2]; 87.5 mg twice daily compared with other tested regimens): highest average serum concentration | Dose limiting adverse events ([2]; 87.5 mg twice daily): not associated with dose limiting adverse events | Tolerability ([2]; all tested dosing regimens): demonstrated tolerability at all tested dosing regimens | Change in resting heart rate, respiratory rate, or systolic blood pressure, udenafil vs placebo [3]: no difference
